In patent publication US8796327B2, “Method for inhibiting production of cytokines of T helper cell type II and/or inhibiting production of chemokines using brazilin” (China Medical University, priority 2010, dated 2014):

What was measured:
IL-4 [1] = assay: ELISA of IL-4 in supernatant of EL-4 T lymphoma cells; format: cell-based, mouse; settings: EL-4 cells
Experimental: First, in an incubator containing 5 vol % of CO2 at 37° C., EL-4 mouse T lymphoma cells (commercially available from ATCC, Manassas, Va., America) were cultured in the DMEM culture medium (containing 10 wt % of thermally deactivated FBS), and were sub-cultured at a ratio of 1:3.
(§1) Then, at a density of 5×10^5 counts/ml, the T lymphoma cells were bred in a six-well culture dish, and at the 0th minute, brazilin of different concentrations (0.3, 1, 3, 10, or 30 micromole (μM)) was added into the cell culture solution at an amount of 1 μl/ml-cell culture solution. Then, the cells were put into the incubator to be cultured therein. 30 minutes later, at an amount of 1 μl/ml-cell culture solution, 5 μg/ml PMA and cAMP at a 250 mmol concentration were added to the cell culture solution to stimulate the expression of IL-4 and IL-5 of the T lymphoma cells. During the process of cell culture, the trypan blue exclusion assay was employed to observe effect of the brazilin on the cell viability, results of which are shown in Table 1 and FIG. 1.
At 4° C., the T lymphoma cells obtained from Experiment A were centrifugally rotated at a rotational speed of 1000 rpm and at 4° C. for 5 minutes, and the supernatant was collected and analyzed for cytokines.
An enzyme-linked immunosorbent assay (ELISA) kit (commercially available from R&D Systems, Inc., America) was used to analyze the expression of IFN-γ, IL-4, IL-5, and eotaxin cytokines in the aforesaid supernatant, results of which are shown in Table 2, Table 3, FIG. 2, and FIG. 3.
In Experiment B and the following Experiment C, all experimental data are presented in form of “mean±standard deviation”, and statistical discrepancy was analyzed by means of the One-way ANOVA and Newman-keuls post-hoc tests, in which it is considered that there is statistical discrepancy if p<0.05.

GATA-3 mRNA = assay: Real-time PCR of GATA-3 mRNA in EL-4 T lymphoma cells; format: cell-based, mouse; settings: for Expression level of GATA-3 mRNA: PMA + cAMP stimulated EL-4 cells, corrected to HPRT
Experimental: as §1
(§2) Expression of mRNA of IL-4, IL-5, GATA-3, c-maf, and T-bet were analyzed in a quantitative way through real-time polymerase chain reaction (PCR) by extracting RNA in the cells obtained in Experiment A (using an RNA purifying kit), converting the RNA into cDNA through reverse transcription, and using an ABI PRISM 7700 sequence detector (Applied Biosystems, Foster City, Calif., America) to analyze the gene expression of mRNA. The PCR was carried out under the following conditions: 50° C., 2 minutes; 95° C., 10 minutes; 60° C., 1 minute; then repeating this cycle forty times. A threshold cycle (or referred to as Ct) was used to represent the expression level of each gene, and an expression level of hypoxanthine-guanine phosphoribosy transferase (HPRT) genes of the endogenous control group was used for correction of the expression level of mRNA.

T-bet mRNA = assay: Real-time PCR of T-bet mRNA in EL-4 T lymphoma cells; format: cell-based, mouse; settings: for Expression level of T-bet mRNA: PMA + cAMP stimulated EL-4 cells, corrected to HPRT
Experimental: as §1, §2

IL-4 [2] = assay: ELISA of IL-4 in bronochial alveolar lavage fluid, mice with asthma (OVA); format: in vivo, BALB/c mice; settings: for IL-4 concentration (pico-gram/ml): i.p. or i.t., OVA-sensitized BALB/c mice
Experimental: In Example 2, mice with asthma were used to conduct in vivo experiments, and ovalbumin (OVA) was used as an allergen.
The mice were sensitized (or challenged) according to the steps shown in FIG. 9 (see Lee et al., Lentiviral-mediated GATA-3 RNAi decreases allergic airway inflammation and hyperresponsiveness. Molecular Therapy, 2008; 16:60-65, which is incorporated herein in its entirety by reference). First, 50 μg OVA (using 2 mg alumina (Alum, Alumlmuject, Pierce Chemical, Rockford, Ill., USA) as an adjuvant) was injected into six to eight-week-old BALB/c female mice (from National Laboratory Animal Center, Taiwan) by intraperitoneal injection (i.p.). At 0th, 14th, and 28th day, the mice were injected with OVA at the same dosage. Before the administration of OVA at the forty-first and the forty-second days, different dosages of brazilin (high dose: 430 μg/mice; low dose: 43 μg/mice) were administrated to the mice by intraperitoneal injection (i.p.) or intratracheal instillation (i.t.). During the fortieth to the forty-second days, 100 μg OVA was dissolved in 40 μl PBS, and was administrated to the mice by intranasal instillation (i.n.) (once everyday, for three days). At the forty-third day, airway hyperresponsiveness of the mice was observed. […]
In Experiment D, after 24 hours from the last administration of OVA into the noses of the mice, the mice were sacrificed, and the blood was collected from the orbital cavities of the mice. […] Cells obtained after the centrifugation were re-suspended in a 1 ml HBSS buffer solution, and the total cell number was counted with a hemocytometer.
The bronochial alveolar lavage fluid collected in Experiment E was centrifuged at 4° C. and with a revolution speed of 400 g for 10 minutes. After the supernatant was collected, the expression of eotaxin, IL-4, IL-5, and IFN-γ was analyzed with an ELISA kit (R&D Systems, Inc., USA). […]

Oc1ccc2c(c1)OC[C@]1(O)Cc3cc(O)c(O)cc3[C@H]21 [brazilin] was tested, and the “expression of protein of IL-4 cytokine” value (IL-4 [1]; result in words) was “inhibited”, the “Concentration of IL-4 (pico-gram/ml)” value (IL-4 [1]; brazilin 0.3 μM + PMA + cAMP) was 23.93 ± 2.214 pico-gram/ml and the “Concentration of IL-4 (pico-gram/ml)” value (IL-4 [1]; brazilin 1 μM + PMA + cAMP) was 22.49 ± 1.969 pico-gram/ml. For the same molecule, the “Concentration of IL-4 (pico-gram/ml)” value (IL-4 [1]; brazilin 3 μM + PMA + cAMP) was 23.45 ± 2.693 pico-gram/ml, the “Concentration of IL-4 (pico-gram/ml)” value (IL-4 [1]; brazilin 10 μM + PMA + cAMP) was 23.13 ± 2.297 pico-gram/ml and the “Concentration of IL-4 (pico-gram/ml)” value (IL-4 [1]; brazilin 30 μM + PMA + cAMP) was 18.71 ± 1.206 pico-gram/ml. For the same molecule, the “expression of mRNA of transcription factor GATA-3” value (GATA-3 mRNA; EL-4 cells, result in words) was “inhibited”, the “Expression level of GATA-3 mRNA” value (GATA-3 mRNA; brazilin 0.3 μM) was 3.960 ± 0.1234 and the “Expression level of GATA-3 mRNA” value (GATA-3 mRNA; brazilin 1 μM) was 3.036 ± 0.5622. For the same molecule, the “Expression level of GATA-3 mRNA” value (GATA-3 mRNA; brazilin 3 μM) was 2.663 ± 0.6056, the “Expression level of GATA-3 mRNA” value (GATA-3 mRNA; brazilin 10 μM) was 1.812 ± 0.1538 and the “Expression level of GATA-3 mRNA” value (GATA-3 mRNA; brazilin 30 μM) was 1.434 ± 0.2530. The “expression of mRNA of transcription factor T-bet” value (T-bet mRNA; EL-4 cells, result in words) was “did not inhibit”, the “Expression level of T-bet mRNA” value (T-bet mRNA; brazilin 0.3 μM) was 1.073 ± 0.1762 and the “Expression level of T-bet mRNA” value (T-bet mRNA; brazilin 1 μM) was 1.036 ± 0.1666. The “Expression level of T-bet mRNA” value (T-bet mRNA; brazilin 3 μM) was 1.052 ± 0.09226, the “Expression level of T-bet mRNA” value (T-bet mRNA; brazilin 10 μM) was 1.068 ± 0.1171 and the “Expression level of T-bet mRNA” value (T-bet mRNA; brazilin 30 μM) was 1.054 ± 0.05147. The “production of IL-4 cytokine” value (IL-4 [2]; BALB/c mice, result in words) was “inhibited”, the “IL-4 concentration (pico-gram/ml)” value (IL-4 [2]; High dose (430 μg/mice)) was 23.01 ± 2.327 pico-gram/ml and the “IL-4 concentration (pico-gram/ml)” value (IL-4 [2]; Low dose (43 μg/mice)) was 36.76 ± 5.490 pico-gram/ml.
